Assay results: ChEMBL document CHEMBL1909294, “Translating clinical findings into knowledge in drug safety evaluation--drug induced liver injury prediction system (DILIps)” (PLoS Comput Biol, 2011)
*1 amine or outer side, *2 acyl side, *3 side chain or, on linkers, in order; H or OH if unused. Where a SMILES comes first, the peptide text is derived from it. Bridges are numbered along the chain shown (N, C = ends). [ ]: non-standard residue; d: D form. The star is where a group is joined. ξ: configuration not given here. X2 = N=C1NCCC([C@H](N[*:1])C(=O)[*:2])N1; ΔAla(Z-3-ureido) = NC(=O)N/C=C(\N)C(=O)O; ξβ3hOrn = NCCCC(N)CC(=O)*; Dap = NC[C@H](N)C(=O)O

Assays:
Hepatotoxicity [1] = test system: Hepatotoxicity;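 for HepSE cholecystitis: Cholecystitis-related hepatic side effect score drawn from the DILIps (drug-induced liver injury prediction) training data set; call rule not given here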;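 for HepSE cirrhosis: cirrhosis hepatic side effect score taken from the DILIps (drug-induced liver injury prediction) training set; call rule not given here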; for HepSE hepatic failure: call rule not given here;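 for HepSE hepatic necrosis: score of hepatic side effects for hepatic necrosis, drawn from the training data of DILIps, a prediction system for drug-induced liver injury; call rule not given here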;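 for HepSE hepatomegaly: hepatic side effect score for hepatomegaly, taken from the training set of the DILIps drug-induced liver injury prediction system; call rule not given here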; for HepSE liver disease: call rule not given here;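 for HepSE liver fatty: hepatic side effect score for fatty liver, taken from the DILIps training set for predicting drug-induced liver injury; call rule not given here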
Hepatotoxicity [2] = test system: Hepatotoxicity; remark: listed apart in the source;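 for HepSE cholecystitis: Cholecystitis-related hepatic side effect score drawn from the DILIps (drug-induced liver injury prediction) training data set; call rule not given here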;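 for HepSE cirrhosis: cirrhosis hepatic side effect score taken from the DILIps (drug-induced liver injury prediction) training set; call rule not given here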; for HepSE hepatic failure: call rule not given here;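 for HepSE hepatic necrosis: score of hepatic side effects for hepatic necrosis, drawn from the training data of DILIps, a prediction system for drug-induced liver injury; call rule not given here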;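 for HepSE hepatomegaly: hepatic side effect score for hepatomegaly, taken from the training set of the DILIps drug-induced liver injury prediction system; call rule not given here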; for HepSE liver disease: call rule not given here;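 for HepSE liver fatty: hepatic side effect score for fatty liver, taken from the DILIps training set for predicting drug-induced liver injury; call rule not given here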
Hepatotoxicity [3] = test system: Hepatotoxicity; remark: listed apart in the source;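 for HepSE cholecystitis: Cholecystitis-related hepatic side effect score drawn from the DILIps (drug-induced liver injury prediction) training data set; call rule not given here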;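 for HepSE cirrhosis: cirrhosis hepatic side effect score taken from the DILIps (drug-induced liver injury prediction) training set; call rule not given here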; for HepSE hepatic failure: call rule not given here;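 for HepSE hepatic necrosis: score of hepatic side effects for hepatic necrosis, drawn from the training data of DILIps, a prediction system for drug-induced liver injury; call rule not given here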;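 for HepSE hepatomegaly: hepatic side effect score for hepatomegaly, taken from the training set of the DILIps drug-induced liver injury prediction system; call rule not given here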; for HepSE liver disease: call rule not given here;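 for HepSE liver fatty: hepatic side effect score for fatty liver, taken from the DILIps training set for predicting drug-induced liver injury; call rule not given here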
Hepatotoxicity [4] = test system: Hepatotoxicity; remark: listed apart in the source;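 for HepSE cholecystitis: Cholecystitis-related hepatic side effect score drawn from the DILIps (drug-induced liver injury prediction) training data set; call rule not given here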;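 for HepSE cirrhosis: cirrhosis hepatic side effect score taken from the DILIps (drug-induced liver injury prediction) training set; call rule not given here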;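 for HepSE hepatic necrosis: score of hepatic side effects for hepatic necrosis, drawn from the training data of DILIps, a prediction system for drug-induced liver injury; call rule not given here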;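 for HepSE hepatomegaly: hepatic side effect score for hepatomegaly, taken from the training set of the DILIps drug-induced liver injury prediction system; call rule not given here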; for HepSE liver disease: call rule not given here;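 for HepSE liver fatty: hepatic side effect score for fatty liver, taken from the DILIps training set for predicting drug-induced liver injury; call rule not given here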
Hepatotoxicity [5] = test system: Hepatotoxicity; remark: listed apart in the source; for HepSE liver disease: call rule not given here
Hepatotoxicity [6] = test system: Hepatotoxicity; remark: listed apart in the source; for HepSE liver disease: call rule not given here
Hepatotoxicity [7] = test system: Hepatotoxicity; remark: listed apart in the source
Hepatotoxicity [8] = test system: Hepatotoxicity; remark: listed apart in the source
Hepatotoxicity [9] = test system: Hepatotoxicity; remark: listed apart in the source
Hepatotoxicity [10] = test system: Hepatotoxicity; remark: listed apart in the source
Hepatotoxicity [11] = test system: Hepatotoxicity; remark: listed apart in the source
Hepatotoxicity [12] = test system: Hepatotoxicity; remark: listed apart in the source
Hepatotoxicity [13] = test system: Hepatotoxicity; remark: listed apart in the source
Hepatotoxicity [14] = test system: Hepatotoxicity; remark: listed apart in the source

Structure (SMILES) | HepSE_liver fatty (Hepatotoxicity [1]) | HepSE_cirrhosis (Hepatotoxicity [2]) | HepSE_hepatic necrosis (Hepatotoxicity [3]) | HepSE_hepatomegaly (Hepatotoxicity [4]) | HepSE_cholecystitis (Hepatotoxicity [5]) | HepSE_liver disease (Hepatotoxicity [6]) | HepSE_hepatic failure (Hepatotoxicity [7]) | HepSE_elevated liver function tests (Hepatotoxicity [8]) | HepSE_cholelithiasis (Hepatotoxicity [9]) | HepSE_bilirubinemia (Hepatotoxicity [10]) | HepSE_Combined Scores (Hepatotoxicity [11]) | HepSE_liver function tests abnormal (Hepatotoxicity [12]) | HepSE_jaundice (Hepatotoxicity [13]) | HepSE_hepatitis (Hepatotoxicity [14])
C=C1/C(=C\C=C2/CCC[C@]3(C)[C@@H]([C@H](C)CCCC(C)(C)O)CC[C@@H]23)C[C@@H](O)C[C@@H]1O [CALCITRIOL] | 0 | 0 | 0 | 0 | 0 | 0 | 0 | 0 | 0 | 0 | 0 | 0 | 0 | 0
CCCCCOC(=O)Nc1nc(=O)n([C@@H]2O[C@H](C)[C@@H](O)[C@H]2O)cc1F [CAPECITABINE] | 1 | 0 | 0 | 1 | 0 | 0 | 1 | 0 | 0 | 1 | 7 | 1 | 1 | 1
C[C@@H]1NC(=O)[C@@H](N)CNC(=O)[C@H](C2CCNC(=N)N2)NC(=O)/C(=C/NC(N)=O)NC(=O)[C@H](CNC(=O)CC(N)CCCN)NC1=O.N=C1NCCC([C@@H]2NC(=O)/C(=C/NC(N)=O)NC(=O)[C@H](CNC(=O)CC(N)CCCN)NC(=O)[C@H](CO)NC(=O)[C@@H](N)CNC2=O)N1 (stereo partly drawn) [CAPREOMYCIN] (H-[Dap]S[Dap](ξβ3hOrn)[ΔAla(Z-3-ureido)][X2]; lactam 1-C) | 0 | 0 | 0 | 0 | 0 | 1 | 0 | 0 | 0 | 0 | 1 | 0 | 0 | 0
C[C@H](CS)C(=O)N1CCC[C@H]1C(=O)O [CAPTOPRIL] | 0 | 0 | 0 | 0 | 0 | 0 | 0 | 0 | 0 | 0 | 2 | 0 | 1 | 1
C[N+](C)(C)CCOC(N)=O.[Cl-] [CARBACHOL] | 0 | 0 | 0 | 0 | 0 | 0 | 0 | 0 | 0 | 0 | 0 | 0 | 0 | 0
NC(=O)N1c2ccccc2C=Cc2ccccc21 [CARBAMAZEPINE] | 0 | 0 | 0 | 0 | 0 | 0 | 1 | 0 | 0 | 0 | 4 | 1 | 1 | 1
CC1(C)S[C@@H]2[C@H](NC(=O)C(C(=O)Oc3ccc4c(c3)CCC4)c3ccccc3)C(=O)N2[C@H]1C(=O)[O-].[Na+] (stereo partly drawn) [CARBENICILLIN INDANYL SODIUM] | 0 | 0 | 0 | 0 | 0 | 0 | 0 | 0 | 0 | 0 | 0 | 0 | 0 | 0
CC1(C)S[C@@H]2[C@H](NC(=O)C(C(=O)O)c3ccccc3)C(=O)N2[C@H]1C(=O)O (stereo partly drawn) [CARBENICILLIN] | 0 | 0 | 0 | 0 | 0 | 0 | 0 | 0 | 0 | 0 | 0 | 0 | 0 | 0
CN(C)CCOC(c1ccc(Cl)cc1)c1ccccn1 (stereo not drawn) [CARBINOXAMINE] | 0 | 0 | 0 | 0 | 0 | 0 | 0 | 0 | 0 | 0 | 0 | 0 | 0 | 0
CCCC(C)(COC(N)=O)COC(=O)NC(C)C (stereo not drawn) [CARISOPRODOL] | 0 | 0 | 0 | 0 | 0 | 0 | 0 | 0 | 0 | 0 | 0 | 0 | 0 | 0
O=NN(CCCl)C(=O)NCCCl [CARMUSTINE] | 0 | 0 | 0 | 0 | 0 | 0 | 0 | 0 | 0 | 0 | 1 | 1 | 0 | 0
C[N+](C)(C)CC(O)CC(=O)[O-] (stereo not drawn) [CARNITINE] | 0 | 0 | 0 | 0 | 0 | 0 | 0 | 0 | 0 | 0 | 0 | 0 | 0 | 0
CC(C)(C)NCC(O)COc1cccc2c1CCC(=O)N2 (stereo not drawn) [CARTEOLOL] | 0 | 0 | 0 | 0 | 0 | 0 | 0 | 0 | 0 | 0 | 0 | 0 | 0 | 0
COc1ccccc1OCCNCC(O)COc1cccc2[nH]c3ccccc3c12 (stereo not drawn) [CARVEDILOL] | 0 | 0 | 0 | 0 | 0 | 0 | 0 | 0 | 0 | 1 | 1 | 0 | 0 | 0
CC[C@H](C)C[C@H](C)CCCCCCCCC(=O)N[C@H]1C[C@@H](O)[C@@H](NCCN)NC(=O)[C@@H]2[C@@H](O)CCN2C(=O)[C@H]([C@H](O)CCN)NC(=O)[C@H]([C@H](O)[C@@H](O)c2ccc(O)cc2)NC(=O)[C@@H]2C[C@@H](O)CN2C(=O)[C@H]([C@@H](C)O)NC1=O [CASPOFUNGIN] | 0 | 0 | 1 | 1 | 0 | 0 | 1 | 0 | 0 | 1 | 5 | 0 | 1 | 0
N[C@@H](C(=O)N[C@@H]1C(=O)N2C(C(=O)O)=C(Cl)CS[C@H]12)c1ccccc1 [CEFACLOR ANHYDROUS] | 0 | 0 | 0 | 0 | 0 | 0 | 0 | 0 | 0 | 0 | 2 | 0 | 1 | 1
CC1=C(C(=O)O)N2C(=O)[C@@H](NC(=O)[C@H](N)c3ccc(O)cc3)[C@H]2SC1 [CEFADROXIL] | 0 | 0 | 0 | 0 | 0 | 0 | 1 | 0 | 0 | 0 | 1 | 0 | 0 | 0
